Measurements: patent US12433903B2 (priority 2021, dated 2025)

Key:
rUGT2B7 = molecular target: T1, rUGT2B7 (Homo sapiens, UniProt P16662); test: Inhibition of CBG glucuronidation by Compound 1, rUGT2B7; assay type: in vitro ADME
T1 sequence (P16662 24-529): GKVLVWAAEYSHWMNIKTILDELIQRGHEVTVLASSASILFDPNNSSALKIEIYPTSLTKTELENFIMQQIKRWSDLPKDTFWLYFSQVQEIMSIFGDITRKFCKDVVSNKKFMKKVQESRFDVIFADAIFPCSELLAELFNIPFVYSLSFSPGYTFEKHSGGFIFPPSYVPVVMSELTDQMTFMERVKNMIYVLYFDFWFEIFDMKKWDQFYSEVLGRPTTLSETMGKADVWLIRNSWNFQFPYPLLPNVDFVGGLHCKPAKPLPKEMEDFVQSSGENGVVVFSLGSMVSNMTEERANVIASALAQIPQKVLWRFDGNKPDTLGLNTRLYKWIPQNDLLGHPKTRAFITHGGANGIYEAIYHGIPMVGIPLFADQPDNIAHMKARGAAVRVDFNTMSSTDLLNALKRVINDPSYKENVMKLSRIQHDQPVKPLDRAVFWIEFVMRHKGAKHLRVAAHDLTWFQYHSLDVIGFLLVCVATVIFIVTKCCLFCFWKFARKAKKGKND
Description: The purpose of this experiment was to determine if Compound 1 can inhibit the glucuronidation of CBG, as both are substrates for the two major isoforms responsible for CBG glucuronidation.
The ability of Compound 1 to inhibit the metabolism of CBG by UGT1A9 and UGT2B7 enzymes was investigated to ascertain the IC50 values for direct inhibition. The incubation conditions (substrate concentration, incubation time and protein concentration) were determined in Part 2 of the protocol such that CBG metabolism remains near initial rate conditions (e.g., 20-30% substrate loss).
Preliminary experiments were conducted in Part I of the protocol, first to establish the HPLC/MS/MS bioanalytical methods for CBG and CBG glucuronide. […] The second set of preliminary experiments (Part 2), as mentioned, were conducted to optimize the incubation conditions as described above. Incubations (at 37° C.) contained Tris-HCl buffer (100 mM, pH 7.7), MgCl2 (10 mM), EDTA (1 mM, pH 7.4) and UDP-glucuronic acid (UDPGA, 10 mM). CBG was added to each incubation in DMSO such that the final percent of DMSO was 1% v/v, or less. Reactions were terminated by the addition of an equal volume of stop reagent, acetonitrile containing an internal standard. The samples were centrifuged (e.g., 920 RCF for 10 minutes at 10° C.), and the supernatant fractions were analyzed by LC-MS/MS to determine the amount of CBG remaining and formation of one metabolite (CBG glucuronide).
To examine its ability to act as a direct inhibitor of the above listed enzymes, Compound 1 was be added to recombinant human UGT enzyme together with CBG. Reactions were initiated with UDPGA and were carried out in duplicate. For all assays, reactions were terminated by the addition of acetonitrile with or without 2% v/v formic acid, including the internal standard.
Authentic metabolite reference standards were used for quantitation of the probe substrate metabolites and as internal standards. Based on the information obtained in the Part 2 experiments, the following table summarizes the experiments performed, assessing the inhibitory effects of Compound 1 was conducted as follows:
The amounts of CBG present at the end of the incubation periods was determined. For inhibition to have occurred, the amounts of CBG present at the end of the incubation period needed to increase, and the amounts of glucuronide formed needed to decrease.

[1] = tested on: indomethacin induced intestinal injury; test: Indomethacin-induced Crohn's disease in rats; assay type: in vivo
Description: The objective of this study was to determine the efficacy of Compound 1 and Compound 2 in a model of Crohn's disease (indomethacin induced intestinal injury) in rats.
The study design was identical for Compound 1 and Compound 2. On study day -3, rats were weighed and distributed into treatment groups based on body weight.
On study day 0, treatment was initiated and continue as indicated in the Study Design Tables below. Groups 2-6 received a subcutaneous injection of indomethacin (9 mg/kg, 1 ml/kg) in 5% sodium bicarbonate (Sterile Water). On study day 1, Groups 2-6 received a second subcutaneous injection of indomethacin (8 mg/kg, 1 ml/kg) in 5% sodium bicarbonate (Sterile Water). Live phase sample & data collection specifics are outlined below. On study day 4, animals will be euthanized, a section of the small intestine will be removed and weighed. Further necropsy sample and data collection is specified below. Overall efficacy of test articles will be based on body weight, small intestine weight (10 cm), small intestine gross score, and histopathology
At necropsy, the small intestines were evaluated visually and given a gross score according to the following criteria: 0=Normal. 0.5=Very Minimal thickening, multifocal in area at risk. 1=Minimal thickening, fairly diffuse in area at risk. 2=Mild to moderate small intestinal/mesenteric thickening throughout area at risk. 3=Moderate thickening with 1 or more definite adhesions that would be easy to separate. 4=Marked thickening with numerous hard to separate adhesions. 5=Severe intestinal lesion resulting in death.
Preserved 9-cm sections of small intestine were trimmed into 6 transverse sections collected at approximately equal intervals along the […] of the intestine, without bias toward lesion presence or absence. These trimmed sections were processed through graded alcohols and a clearing agent, infiltrated and embedded in paraffin, sectioned, and stained with hematoxylin and eosin (H&E).
Small intestine sections from all animals were examined microscopically by a board-certified veterinary pathologist, and observations were entered into a computer-assisted data retrieval system. Cross sections of small intestine were scored for inflammation and necrosis using the following criteria:
The area at risk for development of this lesion is generally approximately 30% of the total area of a cross section of small intestine where the mesentery attaches.
Inflammation is localized to the mesentery and intestinal area at risk for necrosis with slight extension on either side of it. […] In this case, inflammation is scored based on overall severity ranging from 0.5 (very minimal) to 5 (severe) without regard for the extent of necrosis. The mean score for necrosis and inflammation was calculated for each animal and these mean scores were then summed to arrive at a total score. Each section also has a measurement of total width of mucosal necrosis.

[2] = 10 μM CBG + 0.01 μM Compound 1, 5 min
[3] = 10 μM CBG + 0.03 μM Compound 1, 5 min
[4] = 10 μM CBG + 0.1 μM Compound 1, 5 min
[5] = 10 μM CBG + 0.3 μM Compound 1, 5 min
[6] = 10 μM CBG + 1 μM Compound 1, 5 min
[7] = 10 μM CBG + 3 μM Compound 1, 5 min
[8] = 10 μM CBG + 10 μM Compound 1, 5 min
[9] = Group 5 (Compound 1: 200 mg/kg PO)
[10] = Groups 4 and 5 (Compound 1: 50 and 200 mg/kg PO)

Question: `CCCCCc1cc(O)c(C/C=C(\C)CCC=C(C)C)c(OC)c1` [Compound 1, (E)-2-(3,7-dimethylocta-2,6-dien-1-yl)-3-methoxy-5-pentylphenol] was tested. Which “CBG detected (CBG loss)” value (rUGT2B7; [2]) did it give?
Answer: The value was 1370 pmol.

Question: And the “CBG detected, Percent of control” value (rUGT2B7; [2])?
Answer: Its value is 103.

Question: What about the CBG glucuronide formed (rUGT2B7; [2]) of the same molecule?
Answer: The CBG glucuronide formed was 260000 area ratio.

Question: What about the “CBG glucuronide formed, Percent of control” value (rUGT2B7; [2]) of the same molecule?
Answer: Its value is 104.

Question: What about the “CBG detected (CBG loss)” value (rUGT2B7; [3]) of the same molecule?
Answer: The value was 1460 pmol.

Question: What about the “CBG detected, Percent of control” value (rUGT2B7; [3]) of the same molecule?
Answer: The value was 109.

Question: What about the “CBG glucuronide formed, Percent of control” value (rUGT2B7; [3]) of the same molecule?
Answer: Its value is 101.

Question: What about the “CBG detected (CBG loss)” value (rUGT2B7; [4]) of the same molecule?
Answer: The value was 1410 pmol.

Question: What about the “CBG detected, Percent of control” value (rUGT2B7; [4]) of the same molecule?
Answer: Its value is 106.

Question: What about the “CBG glucuronide formed, Percent of control” value (rUGT2B7; [4]) of the same molecule?
Answer: Its value is 103.

Question: And the “CBG detected (CBG loss)” value (rUGT2B7; [5])?
Answer: The value was 1450 pmol.

Question: And the “CBG detected, Percent of control” value (rUGT2B7; [5])?
Answer: Its value is 109.

Question: What about the “CBG glucuronide formed, Percent of control” value (rUGT2B7; [5]) of the same molecule?
Answer: The value was 105.

Question: And the “CBG detected (CBG loss)” value (rUGT2B7; [6])?
Answer: The value was 1460 pmol.

Question: What about the “CBG detected, Percent of control” value (rUGT2B7; [6]) of the same molecule?
Answer: Its value is 109.

Question: And the “CBG glucuronide formed, Percent of control” value (rUGT2B7; [6])?
Answer: The value was 102.

Question: What about the “CBG detected (CBG loss)” value (rUGT2B7; [7]) of the same molecule?
Answer: Its value is 1440 pmol.

Question: What about the “CBG detected, Percent of control” value (rUGT2B7; [7]) of the same molecule?
Answer: The value was 108.

Question: What about the “CBG glucuronide formed, Percent of control” value (rUGT2B7; [7]) of the same molecule?
Answer: The value was 101.

Question: What about the “CBG detected (CBG loss)” value (rUGT2B7; [8]) of the same molecule?
Answer: The value was 1470 pmol.

Question: And the “CBG detected, Percent of control” value (rUGT2B7; [8])?
Answer: Its value is 111.

Question: What about the “CBG glucuronide formed, Percent of control” value (rUGT2B7; [8]) of the same molecule?
Answer: Its value is 96.0.

Question: What about the “metabolism of CBG in the presence of Compound 1 (in words)” value (rUGT2B7; 0.01-10 μM Compound 1, CBG disappearance or glucuronide formation) of the same molecule?
Answer: The value was “essentially unchanged”.

Question: What about the “small intestine gross score compared to vehicle” value ([1]; Group 4 (Compound 1: 50 mg/kg PO)) of the same molecule?
Answer: The value was “trend in lower small intestine gross score”.

Question: What about the “histopathology scores vs vehicle and dexamethasone” value [1, 9] of the same molecule?
Answer: The value was “significantly lower”.

Question: And the “necrosis width vs vehicle and dexamethasone” value [1, 9]?
Answer: The value was “significantly lower”.

Question: And the “Histopathology scores vs vehicle (Group 2) and positive control (Group 3)” value [1, 10]?
Answer: Its value is “trended lower”.

Question: And the “necrosis width vs vehicle (Group 2) and positive control (Group 3)” value [1, 10]?
Answer: The value was “trended lower”.

Question: What about the “small intestine gross score compared to vehicle” value ([1]; Groups 5-6 (Compound 1: 200 and 800 mg/kg PO)) of the same molecule?
Answer: Its value is “significant reductions in gross score”.

Question: And the “small intestine weight compared to vehicle” value ([1]; all three treatment groups (Groups 4-6), PO days 0-3)?
Answer: Its value is “significantly lower”.

Question: And the “body weight change from Study Day -3 (preventing weight loss)” value ([1]; all treatment groups (Groups 4-6), PO days 0-3, in comparison to dexamethasone (Compound 2: and vehicle))?
Answer: Its value is “all trended towards or had significant differences in preventing weight loss”.
